Measured values taken from paper PMC6010071, “Blocking oestradiol synthesis pathways with potent and selective coumarin derivatives” (Journal of Enzyme Inhibition and Medicinal Chemistry, 2018).
Read-outs that look alike come from different tables or passages of the source.

What was measured:
ERα = target: T1, ERα (Homo sapiens, UniProt P03372); assay: PolarScreen ER Alpha Competitor Assay (fluorescence polarisation); assay type: binding; conditions: for IC50: 25 nM ERα, 4.5 nM fluormone, read-out: ER binding pIC50 (converted)
T1 construct: purchased Life Technologies, Carlsbad, CA
T1 sequence (P03372 1-595): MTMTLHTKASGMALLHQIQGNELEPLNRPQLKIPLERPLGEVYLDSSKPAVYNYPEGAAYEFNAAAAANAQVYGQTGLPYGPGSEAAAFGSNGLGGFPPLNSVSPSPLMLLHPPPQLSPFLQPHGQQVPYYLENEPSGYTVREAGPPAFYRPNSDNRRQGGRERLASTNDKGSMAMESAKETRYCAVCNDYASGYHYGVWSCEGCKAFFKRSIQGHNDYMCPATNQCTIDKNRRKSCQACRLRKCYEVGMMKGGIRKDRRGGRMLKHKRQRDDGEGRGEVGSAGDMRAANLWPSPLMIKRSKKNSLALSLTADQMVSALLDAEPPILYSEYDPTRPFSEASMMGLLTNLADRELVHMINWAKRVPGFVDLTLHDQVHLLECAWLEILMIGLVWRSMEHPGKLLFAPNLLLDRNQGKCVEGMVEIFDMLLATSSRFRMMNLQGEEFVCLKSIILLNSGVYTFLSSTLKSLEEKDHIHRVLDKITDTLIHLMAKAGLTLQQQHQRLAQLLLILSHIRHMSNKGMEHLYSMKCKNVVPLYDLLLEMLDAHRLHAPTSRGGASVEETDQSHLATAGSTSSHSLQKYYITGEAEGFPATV
Experimental: The pIC50 values of the molecules (Table 1) were measured using green PolarScreen™ ER Alpha Competitor Assay (Life Technologies, Carlsbad, CA) kit, following the protocol provided by the manufacturer as previously described. The final concentration of the molecules ranged between 0.0007 and 10,000 nM in the prepared dilution series. […] After mixing the assay plate, it was incubated for 2 h at the room temperature.

MAO-B = target: T2, MAO-B (Homo sapiens, UniProt P27338); assay: MAO-B inhibition, continuous spectrophotometric assay; assay type: biochemical; conditions: single point, read at 2 h
T2 construct: purchased Sigma-Aldrich (St. Louis, MO)
T2 sequence (P27338 1-520): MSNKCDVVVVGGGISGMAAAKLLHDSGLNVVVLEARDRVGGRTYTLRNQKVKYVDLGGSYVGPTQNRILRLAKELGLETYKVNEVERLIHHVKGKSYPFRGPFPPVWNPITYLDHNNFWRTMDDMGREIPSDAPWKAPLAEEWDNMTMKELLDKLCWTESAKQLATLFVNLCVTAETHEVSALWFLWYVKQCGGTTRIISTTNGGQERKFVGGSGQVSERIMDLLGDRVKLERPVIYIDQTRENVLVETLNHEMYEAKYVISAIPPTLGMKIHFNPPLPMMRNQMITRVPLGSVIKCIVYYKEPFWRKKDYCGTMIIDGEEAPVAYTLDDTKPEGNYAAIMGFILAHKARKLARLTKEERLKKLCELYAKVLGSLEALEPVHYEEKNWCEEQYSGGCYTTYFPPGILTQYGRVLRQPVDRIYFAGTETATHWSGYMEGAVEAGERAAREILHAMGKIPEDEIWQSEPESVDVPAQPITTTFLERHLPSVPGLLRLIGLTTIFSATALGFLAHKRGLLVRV
Experimental: (§1) The protocol of continuous spectrophotometric assay by Holt et al. was first used to determine the activity of the proteins. […] The protein was first incubated for 30 min at 37 °C in the chromogenic solution and then the substrate tyramine was introduced at 0.5 mM final plate concentration completing the assay volume. […] The assay should produce absorbance change of ∼0.35[23]. […] These protein concentrations were selected to be used to analyse the molecules 1–9. The analysis conditions followed the above-described assay protocol[23] and the activity of tested molecules was measured at 100 µM for MAO-A and at 10 µM for MAO-B. The analysis was performed as single point measurements and the signal was read by the same instrument at the expected assay maximum indicated by the activity measurements, at 30 min for MAO-A and at 2 h for MAO-B, respectively. […] The observed activity was calculated as inhibition percentage (Table 1).

MAO-A = target: T3, MAO-A (Homo sapiens, UniProt P21397); assay: MAO-A inhibition, continuous spectrophotometric assay; assay type: biochemical; conditions: read-out: MAO-A inhibition at 100 µM
T3 construct: purchased Sigma-Aldrich (St. Louis, MO)
T3 sequence (P21397 1-527): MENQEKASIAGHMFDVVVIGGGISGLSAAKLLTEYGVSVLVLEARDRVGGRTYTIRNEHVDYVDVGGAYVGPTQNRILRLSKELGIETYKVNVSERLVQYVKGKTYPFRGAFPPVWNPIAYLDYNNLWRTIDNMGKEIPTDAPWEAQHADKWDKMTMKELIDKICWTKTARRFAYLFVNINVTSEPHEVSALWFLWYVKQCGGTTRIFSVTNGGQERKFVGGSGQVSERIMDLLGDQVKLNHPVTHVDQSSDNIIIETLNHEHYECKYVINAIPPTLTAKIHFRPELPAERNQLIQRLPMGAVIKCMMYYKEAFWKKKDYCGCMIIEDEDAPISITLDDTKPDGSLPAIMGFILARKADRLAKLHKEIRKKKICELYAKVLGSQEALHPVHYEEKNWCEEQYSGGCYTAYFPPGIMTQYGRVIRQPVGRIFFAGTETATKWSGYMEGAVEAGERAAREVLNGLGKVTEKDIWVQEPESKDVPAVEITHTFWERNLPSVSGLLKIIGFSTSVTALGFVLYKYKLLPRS
Experimental: as §1

[1] = target: T4, heterologously expressed human CYP1A2 enzyme (Homo sapiens, UniProt P05177); assay: CYP1A2 inhibition; assay type: biochemical; conditions: for IC50: read-out: CYP1A2 inhibition ∼ pIC50 (converted)
T4 construct: purchased Corning Inc., Corning, NY
T4 sequence (P05177 1-516): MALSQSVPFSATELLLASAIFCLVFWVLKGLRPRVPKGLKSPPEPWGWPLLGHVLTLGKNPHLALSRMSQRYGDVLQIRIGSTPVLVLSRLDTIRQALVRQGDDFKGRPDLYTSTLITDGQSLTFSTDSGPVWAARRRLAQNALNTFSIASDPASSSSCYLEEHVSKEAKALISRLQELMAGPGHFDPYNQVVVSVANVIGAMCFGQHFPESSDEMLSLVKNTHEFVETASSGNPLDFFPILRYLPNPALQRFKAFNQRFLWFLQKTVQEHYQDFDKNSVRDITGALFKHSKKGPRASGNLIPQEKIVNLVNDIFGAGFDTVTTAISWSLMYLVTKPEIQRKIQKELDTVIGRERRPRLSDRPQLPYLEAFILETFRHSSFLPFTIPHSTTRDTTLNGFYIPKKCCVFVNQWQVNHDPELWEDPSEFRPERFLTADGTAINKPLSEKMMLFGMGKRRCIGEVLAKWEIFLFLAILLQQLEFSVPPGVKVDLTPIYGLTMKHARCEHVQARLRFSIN
Experimental: Inhibition of CYP1A2 activity was determined using commercial heterologously expressed human CYP1A2 enzyme (Corning Inc., Corning, NY) essentially as described previously.

[2] = 10 µM, read-out: MAO-B inhibition at 10 µM
[3] = 100 µM, single point, read at 30 min

Row | IC50 (ERα) | inhibition at 10 µM (MAO-B; [2]) | inhibition at 100 µM (MAO-A; [3]) | IC50 [1] | ER inhibition (in words) (ERα) | CYP1A2 inhibition ∼ pIC50 [1] | Compound | inhibition at 10 µM (MAO-B; read-out: MAO-B inhibition at 10 µM, 10 µM) | inhibition at 100 µM (MAO-A)
1 | > 10 µM | 48% | 4% | 85.1 µM | – | – | COc1ccc(-c2cc3cccc(O)c3oc2=O)cc1 [Compound 1, 8-hydroxy-3–(4-methoxyphenyl)-2H-chromen-2-one] | – | –
2 | > 10 µM | 50% | 4% | 7.08 µM | – | – | O=c1oc2ccccc2cc1-c1cccc(O)c1 [Compound 3, 3–(3-hydroxyphenyl)-2H-chromen-2-one] | – | –
3 | > 10 µM | 64% | – | 0.129 µM | – | – | O=c1oc2ccc(Cl)cc2cc1-c1cccc(O)c1 [Compound 4, 6-chloro-3–(3-hydroxyphenyl)-2H-chromen-2-one] | – | –
4 | 0.708 µM | – | -1% | – | reasonable ER inhibition | 4.52 | COc1ccc2cc(-c3ccc(O)c(F)c3)c(=O)oc2c1 [Compound 6, 3–(3-fluoro-4-hydroxyphenyl)-7-methoxy-2H-chromen-2-one] | – | –
5 | > 10 µM | – | -11% | – | – | 5.82 | COc1ccc2oc(=O)c(-c3ccc(O)c(F)c3)cc2c1 [Compound 7, 3–(3-fluoro-4-hydroxyphenyl)-6-methoxy-2H-chromen-2-one] | – | –

Row | Compound | IC50 (ERα) | inhibition at 10 µM (MAO-B; [2]) | inhibition at 100 µM (MAO-A; [3]) | IC50 [1] | ER inhibition (in words) (ERα) | CYP1A2 inhibition ∼ pIC50 [1] | inhibition at 10 µM (MAO-B; read-out: MAO-B inhibition at 10 µM, 10 µM) | inhibition at 100 µM (MAO-A)
6 | O=c1oc2ccc(O)cc2cc1-c1ccc(O)cc1 [Compound 2, 6-hydroxy-3–(4-hydroxyphenyl)-2H-chromen-2-one] | > 10 µM | – | – | 33.1 µM | – | – | 16% | -6%
